Experimental data published in ChEMBL document CHEMBL4000213, “New antiprotozoal agents: Synthesis and biological evaluation of different 4-(7-chloroquinolin-4-yl) piperazin-1-yl)pyrrolidin-2-yl)methanone derivatives” (Bioorg Med Chem Lett, 2017).
The source made the active and inactive calls. The rule behind the calls is not given here.

Key:
Entamoeba histolytica = experiment: Anti-amoebic activity against trophozoites of Entamoeba histolytica HM-1:IMSS gassed with nitrogen for 10 mins measured after 72 hrs by eosin staining based micro dilution method; assay type: functional
Plasmodium falciparum = experiment: Antimalarial activity against chloroquine-sensitive Plasmodium falciparum NF54 infected in erythrocytes measured after 48 hrs by Malstat/nitroblue tetrazolium/phenazine ethosulphate reagent based LDH assay; assay type: functional, cell-based; details: NF54, 48 h
HEK293 = experiment: Cytotoxicity against HEK293 cells measured after 48 hrs by MTT assay; assay type: cell-based; details: Homo sapiens, HEK293, 48 h
[1] = Selectivity index, ratio of IC50 for cytotoxicity against HEK293 cells to IC50 for anti-malarial activity against chloroquine-sensitive Plasmodium falciparum NF54 infected in erythrocytes; assay type: toxicity, cell-based; details: human; read-out: Ratio IC50
[2] = Antioxidant activity assessed as inhibition of ferrous chloride-induced lipid peroxidation at 50 uM preincubated for 24 hrs followed by ferrous chloride addition relative to control; assay type: functional
Anopheles arabiensis [3] = experiment: Larvicidal activity against Anopheles arabiensis KGB at 0.5 uM measured after 24 hrs relative to control; assay type: functional
Anopheles arabiensis [4] = experiment: Larvicidal activity against Anopheles arabiensis KGB measured after 24 hrs; assay type: functional; details: read-out: LD50 (the source's name)

| Compound | IC50 (Entamoeba histolytica) | IC50 (Plasmodium falciparum) | IC50 (HEK293) | selectivity ratio [1] | inhibition [2] | Activity (Anopheles arabiensis [3]) | LC50 (Anopheles arabiensis [4]) |
| --- | --- | --- | --- | --- | --- | --- | --- |
| O=C([C@H]1CCCN1S(=O)(=O)c1ccc2ccccc2c1)N1CCN(c2ccnc3cc(Cl)ccc23)CC1 | 0.34 µM | 3.45 µM | 24.4 µM | 7.06 | < 1% | inactive |  |
| O=C([C@H]1CCCN1S(=O)(=O)c1ccccc1)N1CCN(c2ccnc3cc(Cl)ccc23)CC1 | 1.26 µM | 5.33 µM | 64.1 µM | 12 | < 1% | inactive |  |
| Cc1ccc(S(=O)(=O)N2CCC[C@@H]2C(=O)N2CCN(c3ccnc4cc(Cl)ccc34)CC2)cc1 | 0.34 µM | 1.42 µM | 81.2 µM | 57.1 | < 1% | inactive |  |
| CC[C@@]1(O)C(=O)OCc2c1cc1n(c2=O)Cc2cc3ccccc3nc2-1 [CAMPTOTHECIN] |  |  | 0.01 µM |  |  |  |  |
| Clc1ccc(C(c2ccc(Cl)cc2)C(Cl)(Cl)Cl)cc1 [CHLOROPHENOTHANE] |  |  |  |  |  | 100% | 0.5 µM |
| COc1ccc(S(=O)(=O)N2CCC[C@@H]2C(=O)N2CCN(c3ccnc4cc(Cl)ccc34)CC2)cc1 | 5.73 µM | 4.02 µM | 57.7 µM | 14.3 | < 1% | inactive |  |
| O=C([C@H]1CCCN1S(=O)(=O)c1ccc(Cl)cc1)N1CCN(c2ccnc3cc(Cl)ccc23)CC1 | 0.31 µM | 6.33 µM | 46 µM | 7.27 | < 1% | inactive |  |
| Cc1c(C)c2c(c(C)c1O)CCC(C)(C(=O)O)O2 (stereo unspecified) |  |  |  |  | 74% |  |  |
| C=C[C@H]1CN2CC[C@H]1C[C@H]2[C@H](O)c1ccnc2ccc(OC)cc12 [QUININE] |  | 0.18 µM | 276 µM | 1490 |  |  |  |
| O=C([C@H]1CCCN1S(=O)(=O)c1ccccc1[N+](=O)[O-])N1CCN(c2ccnc3cc(Cl)ccc23)CC1 | 2.08 µM | 4.08 µM | 57.7 µM | 14.2 | < 1% | inactive |  |
| O=C(CN1CCN(c2ccnc3cc(Cl)ccc23)CC1)Nc1ccc(F)cc1 | 0.41 µM |  |  |  |  |  |  |
| O=C([C@H]1CCCN1S(=O)(=O)c1cc(Cl)ccc1Cl)N1CCN(c2ccnc3cc(Cl)ccc23)CC1 | 8.89 µM | 4.21 µM | 38 µM | 9.02 | < 1% | inactive |  |
| CC(C)(C)c1ccc(S(=O)(=O)N2CCC[C@@H]2C(=O)N2CCN(c3ccnc4cc(Cl)ccc34)CC2)cc1 | 0.77 µM | 3.21 µM | 53.1 µM | 16.5 | < 1% | inactive |  |
| CCCS(=O)(=O)N1CCC[C@@H]1C(=O)N1CCN(c2ccnc3cc(Cl)ccc23)CC1 | 6.91 µM |  |  |  | < 1% | inactive |  |
| Cc1cc(C)c(S(=O)(=O)N2CCC[C@@H]2C(=O)N2CCN(c3ccnc4cc(Cl)ccc34)CC2)c(C)c1 | 0.14 µM | 19.6 µM | 14.7 µM | 0.75 | < 1% | inactive |  |
| O=C(CN1CCN(c2ccnc3cc(Cl)ccc23)CC1)NC1CCCCC1 | 0.86 µM |  |  |  |  |  |  |
